# According to PubChem BioAssay (NCI):
#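 Where inhibition never reached the appropriate level, the endpoint shown equals the highest concentration tested. Otherwise, values were interpolated linearly from a five-concentration, 48-hour dose response in 96-well plates. TGI: concentration producing complete growth inhibition.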
# Key:
# Experiment in all cases: DTP human tumour cell line panel, 48 h
# 786-0 renal = system: 786-0 renal
# A549 NSCLC = system: A549 NSCLC
# ACHN renal = system: ACHN renal
# BT-549 breast = system: BT-549 breast
# CAKI-1 renal = system: CAKI-1 renal
# CCRF-CEM leukemia = system: CCRF-CEM leukemia
# COLO 205 colon = system: COLO 205 colon
# DU-145 prostate = system: DU-145 prostate
# EKVX NSCLC = system: EKVX NSCLC
# HCC-2998 colon = system: HCC-2998 colon
# HCT-116 colon = system: HCT-116 colon
# HCT-15 colon = system: HCT-15 colon
# HL-60(TB) leukemia = system: HL-60(TB) leukemia
# HOP-62 NSCLC = system: HOP-62 NSCLC
# HOP-92 NSCLC = system: HOP-92 NSCLC
# HS 578T breast = system: HS 578T breast
# HT29 colon = system: HT29 colon
# IGROV1 ovarian = system: IGROV1 ovarian
# K-562 leukemia = system: K-562 leukemia
# KM12 colon = system: KM12 colon
# LOX IMVI melanoma = system: LOX IMVI melanoma
# M14 melanoma = system: M14 melanoma
# MALME-3M melanoma = system: MALME-3M melanoma
# MCF7 breast = system: MCF7 breast
# MDA-MB-435 = system: MDA-MB-435
# MDA-N = system: MDA-N
# MOLT-4 leukemia = system: MOLT-4 leukemia
# NCI-H226 lung = system: NCI-H226 lung
# NCI-H23 lung = system: NCI-H23 lung
# NCI-H460 lung = system: NCI-H460 lung
# NCI-H522 lung = system: NCI-H522 lung
# NCI/ADR-RES ovarian = system: NCI/ADR-RES ovarian
# OVCAR-3 ovarian = system: OVCAR-3 ovarian
# OVCAR-4 ovarian = system: OVCAR-4 ovarian
# OVCAR-5 ovarian = system: OVCAR-5 ovarian
# OVCAR-8 ovarian = system: OVCAR-8 ovarian
# PC-3 prostate = system: PC-3 prostate
# RPMI-8226 leukemia = system: RPMI-8226 leukemia
# RXF 393 renal = system: RXF 393 renal
# SF-268 CNS = system: SF-268 CNS
# SF-295 CNS = system: SF-295 CNS
# SF-539 CNS = system: SF-539 CNS
# SK-MEL-2 melanoma = system: SK-MEL-2 melanoma
# SK-MEL-28 melanoma = system: SK-MEL-28 melanoma
# SK-MEL-5 melanoma = system: SK-MEL-5 melanoma
# SK-OV-3 ovarian = system: SK-OV-3 ovarian
# SN12C renal = system: SN12C renal
# SNB-19 CNS = system: SNB-19 CNS
# SNB-75 CNS = system: SNB-75 CNS
# SR leukemia = system: SR leukemia
# SW-620 colon = system: SW-620 colon
# T-47D breast = system: T-47D breast
# TK-10 renal = system: TK-10 renal
# U251 CNS = system: U251 CNS
# UACC-257 melanoma = system: UACC-257 melanoma
# UACC-62 melanoma = system: UACC-62 melanoma
# UO-31 renal = system: UO-31 renal
# MDA-MB-231 breast = system: MDA-MB-231 breast
structure (smiles),measurement,setting,value
Cc1ccc(-n2c(=O)c3nn4c(=O)n(-c5ccc(C)cc5)c(=O)c4nn3c2=O)cc1,TGI,786-0 renal,> 100 µM
same,TGI,A549 NSCLC,> 100 µM
same,TGI,ACHN renal,> 100 µM
same,TGI,BT-549 breast,> 100 µM
same,TGI,CAKI-1 renal,> 100 µM
same,TGI,CCRF-CEM leukemia,> 100 µM
same,TGI,COLO 205 colon,> 100 µM
same,TGI,DU-145 prostate,> 100 µM
same,TGI,EKVX NSCLC,> 100 µM
same,TGI,HCC-2998 colon,> 100 µM
same,TGI,HCT-116 colon,> 100 µM
same,TGI,HCT-15 colon,> 100 µM
same,TGI,HL-60(TB) leukemia,> 100 µM
same,TGI,HOP-62 NSCLC,> 100 µM
same,TGI,HOP-92 NSCLC,> 100 µM
same,TGI,HS 578T breast,> 100 µM
same,TGI,HT29 colon,> 100 µM
same,TGI,IGROV1 ovarian,> 100 µM
same,TGI,K-562 leukemia,> 100 µM
same,TGI,KM12 colon,> 100 µM
same,TGI,LOX IMVI melanoma,> 100 µM
same,TGI,M14 melanoma,> 100 µM
same,TGI,MALME-3M melanoma,> 100 µM
same,TGI,MCF7 breast,> 100 µM
same,TGI,MDA-MB-435,> 100 µM
same,TGI,MDA-N,> 100 µM
same,TGI,MOLT-4 leukemia,> 100 µM
same,TGI,NCI-H226 lung,> 100 µM
same,TGI,NCI-H23 lung,> 100 µM
same,TGI,NCI-H460 lung,> 100 µM
same,TGI,NCI-H522 lung,> 100 µM
same,TGI,NCI/ADR-RES ovarian,> 100 µM
same,TGI,OVCAR-3 ovarian,> 100 µM
same,TGI,OVCAR-4 ovarian,> 100 µM
same,TGI,OVCAR-5 ovarian,> 100 µM
same,TGI,OVCAR-8 ovarian,> 100 µM
same,TGI,PC-3 prostate,> 100 µM
same,TGI,RPMI-8226 leukemia,> 100 µM
same,TGI,RXF 393 renal,> 100 µM
same,TGI,SF-268 CNS,> 100 µM
same,TGI,SF-295 CNS,> 100 µM
same,TGI,SF-539 CNS,> 100 µM
same,TGI,SK-MEL-2 melanoma,> 100 µM
same,TGI,SK-MEL-28 melanoma,> 100 µM
same,TGI,SK-MEL-5 melanoma,> 100 µM
same,TGI,SK-OV-3 ovarian,> 100 µM
same,TGI,SN12C renal,> 100 µM
same,TGI,SNB-19 CNS,> 100 µM
same,TGI,SNB-75 CNS,> 100 µM
same,TGI,SR leukemia,> 100 µM
same,TGI,SW-620 colon,> 100 µM
same,TGI,T-47D breast,> 100 µM
same,TGI,TK-10 renal,> 100 µM
same,TGI,U251 CNS,> 100 µM
same,TGI,UACC-257 melanoma,> 100 µM
same,TGI,UACC-62 melanoma,> 100 µM
same,TGI,UO-31 renal,> 100 µM
O=CN(CCN1CCCC1)C1CCc2cc(Cl)c(Cl)cc2C1 (stereo not drawn),TGI,786-0 renal,19.9 µM
same,TGI,A549 NSCLC,23.2 µM
same,TGI,BT-549 breast,27.7 µM
same,TGI,CAKI-1 renal,53.8 µM
same,TGI,CCRF-CEM leukemia,43.9 µM
same,TGI,COLO 205 colon,37.8 µM
same,TGI,DU-145 prostate,> 100 µM
same,TGI,EKVX NSCLC,> 100 µM
same,TGI,HCC-2998 colon,31.2 µM
same,TGI,HCT-116 colon,24.9 µM
same,TGI,HCT-15 colon,31.8 µM
same,TGI,HL-60(TB) leukemia,37.2 µM
same,TGI,HOP-62 NSCLC,34.9 µM
same,TGI,HOP-92 NSCLC,> 100 µM
same,TGI,HS 578T breast,42.3 µM
same,TGI,HT29 colon,18.2 µM
same,TGI,IGROV1 ovarian,97.6 µM
same,TGI,K-562 leukemia,51.6 µM
same,TGI,KM12 colon,20.9 µM
same,TGI,LOX IMVI melanoma,27.3 µM
same,TGI,M14 melanoma,29.3 µM
same,TGI,MALME-3M melanoma,27.3 µM
same,TGI,MDA-MB-231 breast,26.1 µM
same,TGI,MDA-MB-435,28.6 µM
same,TGI,MDA-N,23.4 µM
same,TGI,MOLT-4 leukemia,55 µM
same,TGI,NCI-H23 lung,60 µM
same,TGI,NCI-H460 lung,21.4 µM
same,TGI,NCI-H522 lung,23 µM
same,TGI,NCI/ADR-RES ovarian,61.2 µM
same,TGI,OVCAR-3 ovarian,30.6 µM
same,TGI,OVCAR-4 ovarian,> 100 µM
same,TGI,OVCAR-5 ovarian,40.7 µM
same,TGI,OVCAR-8 ovarian,48.6 µM
same,TGI,PC-3 prostate,28.9 µM
same,TGI,RPMI-8226 leukemia,45.3 µM
same,TGI,RXF 393 renal,28.8 µM
same,TGI,SF-268 CNS,> 100 µM
same,TGI,SF-295 CNS,19 µM
same,TGI,SF-539 CNS,48.2 µM
same,TGI,SK-MEL-5 melanoma,42 µM
same,TGI,SK-OV-3 ovarian,29 µM
same,TGI,SN12C renal,> 100 µM
same,TGI,SNB-19 CNS,75 µM
same,TGI,SR leukemia,60.7 µM
same,TGI,SW-620 colon,> 100 µM
same,TGI,T-47D breast,41.3 µM
same,TGI,TK-10 renal,34.8 µM
same,TGI,U251 CNS,24.6 µM
same,TGI,UACC-257 melanoma,30.5 µM
same,TGI,UO-31 renal,27.1 µM
